Laboratory results reported in PubChem BioAssay (NCI).
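Dose response: 5 concentrations. Exposure: 48 h. Format: 96-well plates. Endpoint: linear interpolation; highest concentration if not reached. GI50: concentration for 50% inhibition of growth. TGI: concentration producing complete growth inhibition.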

Legend:
Assay in all cases: growth of human tumour cells (NCI), 48 h
[1] = tested on: HS 578T breast
[2] = tested on: K-562 leukemia
[3] = tested on: M14 melanoma
[4] = tested on: MCF7 breast
[5] = tested on: OVCAR-3 ovarian
[6] = tested on: SNB-19 CNS
[7] = tested on: SR leukemia
[8] = tested on: SW-620 colon
[9] = tested on: TK-10 renal
[10] = tested on: UO-31 renal

Row | SMILES | GI50 [1] [µM] | TGI [1] [µM] | GI50 [2] [µM] | GI50 [3] [µM] | TGI [3] [µM] | GI50 [4] [µM] | TGI [4] [µM] | GI50 [5] [µM] | TGI [5] [µM] | GI50 [6] [µM] | TGI [6] [µM] | GI50 [7] [µM] | GI50 [8] [µM] | TGI [8] [µM] | GI50 [9] [µM] | TGI [9] [µM] | GI50 [10] [µM] | TGI [10] [µM] | TGI [2] [µM] | TGI [7] [µM]
1 | CC(C)[C@]12O[C@H]1[C@@H]1O[C@]13[C@]1(O[C@H]1C[C@H]1c4c(C(=O)c5ccccc5)oc(OC(=O)c5ccccc5)c4CC[C@@]13C)[C@@H]2O | 0.0303 | 0.996 | 0.0219 | 0.0236 | 0.0688 | 0.0139 | 19.9 | 0.0244 | 0.154 | 0.176 | 36.6 | 0.0303 | 0.0179 | 3.89 | 0.0282 | 27.1 | 0.0223 | 10.5 |  | 
2 | NCCOc1ccccn1 |  | > 100 |  |  | > 100 |  | > 100 |  | > 100 |  | > 100 |  |  | > 100 |  | > 100 |  | > 100 | > 100 | > 100
3 | C=C1C(=O)O[C@H]2[C@H]1CC/C(Cn1cc(CCC)nn1)=C\CC[C@@]1(C)O[C@@H]21 | 23.4 | 69.6 | 3.96 | 3.99 | 17.9 | 3.35 | 15.4 | 3.96 | 14 | 18.8 | 38.1 | 2.88 | 4.23 | 14.4 | 3.86 | 14.6 | 11.1 | 24.6 | 29.8 | 26.1
4 | COc1ccc(-n2c(N)c(C(=O)NCCN3CCOCC3)c3nc4ccccc4nc32)cc1OC | 9.27 | > 100 | 2.96 | 15.1 | > 100 | 4.13 | > 100 | 20.3 | > 100 | 10.9 | > 100 | 0.63 | 4.07 | > 100 | 31.9 | > 100 | 3.53 | 62.1 | > 100 | 22.3
5 | COC(=O)c1c(-c2ccccc2)csc1NC(=O)c1c(-c2ccccc2)noc1C | > 100 | > 100 | 0.409 | 6.86 | > 100 | 0.6 | > 100 | 3.79 | > 100 | 1.07 | > 100 | 0.282 | 0.705 | > 100 | > 100 | > 100 | 8.88 | > 100 | > 100 | > 100
6 | O=C1c2cccc3cccc(c23)C(=O)N1CCCCOc1ccc(-c2nc3ccc(N4CCOCC4)cc3[nH]2)cc1 | 2.16 | 14.7 | 3.25 | 2.88 | 7.55 | 2.92 | 12.8 | 5.05 | 11.2 | 7.91 | > 48.5 | 2.35 | 3.78 | 12.3 | 3.57 | 13.4 | 10.8 | > 35.2 | 9.47 | > 100
7 | CO/N=C1/c2cc(OC)ccc2-c2c(NOC)nc3ccccc3c21 | 18 | 51 | 65.7 | > 100 | > 100 | 27.1 | > 100 | 49.2 | > 100 | 17.5 | 53 | 38.7 | 60.1 | > 100 | 16 | 39.7 | 35.4 | > 100 | > 100 | > 100
8 | CCOc1ccc2c(c1)/C(=C\C=C\C1CC(C)C3CC(OCC)CCC3N1CC)CC(C)N2CC (configuration not stated) | 1.59 | 6.81 | 0.685 | 1.43 | 3 | 0.627 | 2.43 | 0.915 | 2.2 | 0.512 | 1.97 | 0.412 | 0.73 | 2.59 | 1.5 | 2.93 | 1.59 | 3.31 | 2.62 | 2.75
9 | O=C1NC(=NCCc2ccccc2Cl)S/C1=C\c1ccc2ncccc2c1 | 7.03 | > 17 | 1.1 | 6.48 | > 25 | 1.32 | > 25 | 5.31 | 19.8 | 7.4 | > 25 | 0.622 | 1.09 | > 25 | 3.79 | > 20.1 | 5.13 | > 25 | > 25 | 2.25
10 | CCCCCCCCSC1=CC(=O)C(OC)=C(OC)C1=O | 2.64 | 9.85 | 2.73 | 2.06 | 9.86 | 1.91 | 14.1 | 1.45 | 2.85 | 13.7 | 27.3 | 2.27 | 1.71 | 3.37 | 2.06 | 3.95 | 1.77 | 3.31 | > 100 | > 100
11 | CC(C)(C)c1ccc(-c2nnc(SCc3ccc(Cl)cc3)n2-c2cccc(C(F)(F)F)c2)cc1 |  | > 100 |  |  | > 100 |  | > 100 |  | 16.8 |  | > 100 |  |  | > 100 |  | > 100 |  | 34.2 | > 100 | 31.5
12 | CC(O)CN(CCN(CC(C)O)CC(C)O)CC(C)O.O=[N+]([O-])O.[Cu+2] (configuration not stated) | > 100 | > 100 | > 100 | > 100 | > 100 | 93.1 | > 100 | > 100 | > 100 | 30.5 | 74.5 | > 100 | > 100 | > 100 | > 100 | > 100 | > 100 | > 100 | > 100 | > 100
13 | COc1ccc(C2CC(c3cc(OC)c(OC)c(OC)c3)=NN2)cc1 (configuration not stated) | 14.4 | 98.3 | 2.66 | 13.3 | > 100 | 2.78 | 27.1 | 3.74 | 55.3 | 15.6 | > 100 | 1.01 | 4.58 | > 100 | 42 | > 100 | 4.82 | > 100 | > 100 | 4.43
14 | Nc1nc(Cl)nc2c1ncn2C1O[C@H](CO)[C@@H](O)[C@@H]1F (some centres not stated) | > 94.2 | > 100 | 3.79 | 0.0876 | 0.292 | 0.185 | > 100 | > 100 | > 100 | 0.216 | > 100 | 0.387 | 0.888 | > 100 |  | > 100 | 0.156 | 1.24 | > 100 | > 100
15 | O=Nc1c(-c2cccc([N+](=O)[O-])c2)nc2ncccn12 | 12.8 | 47.4 | 1.28 | 12 | 26.8 | 3.51 | 22.6 | 3.22 | 12.5 | 18 | 39.6 | 0.218 | 2.08 | 6.03 | 11 | 30.2 | 5.66 | 30.3 | 4.15 | 2.22
